In the C3SDB collision cross section collection:

Columns and labels:
[1] = instrument: TW, calibrated with phosphatidylcholines (ESI+) and phosphatidylethanolamines (ESI-)
[2] = instrument: DT, single field, calibrated with Agilent tune mix (Agilent)

Row | collision cross section (N2) ([1]; [M-H]-) | collision cross section (N2) ([1]; [M+H]+) | collision cross section (N2) ([1]; [M+Na]+) | SMILES | also measured
1 | 262 Å² | 271.8 Å² |  | CCCCCCCCCCCCC=CC[C@@H](O)[C@H](CO)NC(=O)CCCCCCCCCCCCCCCCCCCCC [Cer(d18:1/22:0)] | 
2 |  | 292.2 Å² |  | CCCCCCCCCCCCC=CC[C@@H](O)[C@H](COP(=O)([O-])OCC[N+](C)(C)C)NC(=O)CCCCCCCCCCCCCCCCCCC [SM(d18:1/20:0)] | 
3 |  | 287.8 Å² |  | CCCCCCCCCCCCC=CC[C@@H](O)[C@H](CO[C@@H]1O[C@H](CO)[C@@H](O)C(O)C1O)NC(=O)CCCCCCCCCCCCCCCCCCC (stereo partly drawn) [GlcCer(d18:1/20:0)] | 
4 |  | 293.1 Å² | 290.1 Å² | CCCCCCCCCCCCC=CC[C@@H](O)[C@H](CO[C@@H]1O[C@H](CO)[C@@H](O)C(O)C1O)NC(=O)CC=CCCCCCCCCCCCCCCCCCC (stereo partly drawn) [GlcCer(d18:1/22:1)] | 
5 |  | 293.2 Å² | 294.3 Å² | CCCCCCCCCCCCC=CC[C@@H](O)[C@H](CO[C@@H]1O[C@H](CO)[C@@H](O)C(O)C1O)NC(=O)CCCCCCCCCCCCCCCCCCCCC (stereo partly drawn) [GlcCer(d18:1/22:0)] | 
6 | 266.4 Å² | 276.8 Å² |  | CCCCCCCCCCCCC=CC[C@@H](O)[C@H](CO)NC(=O)CC=CCCCCCCCCCCCCCCCCCCCC [Cer(d18:1/24:1)] | 
7 |  | 271.9 Å² |  | CCCCCCCCCCCCC=CC[C@@H](O)[C@H](CO)NC(=O)CCCCCCCCCCCCCCCCCCCCC [Cer(d18:0/22:1)] | 
8 |  | 304.5 Å² | 304.7 Å² | CCCCCCCCCCCCC=CC[C@@H](O)[C@H](CO[C@@H]1O[C@H](CO)[C@@H](O)C(O)C1O)NC(=O)CC=CCCCCCCCCCCCCCCCCCCCCCC (stereo partly drawn) [GlcCer(d18:1/26:1)] | 
9 | 268 Å² | 279.1 Å² |  | CCCCCCCCCCCCC=CC[C@@H](O)[C@H](CO)NC(=O)CCCCCCCCCCCCCCCCCCCCCCC [Cer(d18:1/24:0)] | 
10 |  | 299.7 Å² | 299.1 Å² | CCCCCCCCCCCCC=CC[C@@H](O)[C@H](CO[C@@H]1O[C@H](CO)[C@@H](O)C(O)C1O)NC(=O)CCCCCCCCCCCCCCCCCCCCCCC (stereo partly drawn) [GlcCer(d18:1/24:0)] | 
11 |  | 282.6 Å² | 282.2 Å² | CCCCCCCCCCCCC=CC[C@@H](O)[C@H](CO[C@@H]1O[C@H](CO)[C@@H](O)C(O)C1O)NC(=O)CCCCCCCCCCCCCCCCC (stereo partly drawn) [GlcCer(d18:1/18:0)] | 
12 | 255.8 Å² | 266.5 Å² |  | CCCCCCCCCCCCC=CC[C@@H](O)[C@H](CO)NC(=O)CCCCCCCCCCCCCCCCCCC [Cer(d18:1/20:0)] | 

Further lines, the compound ahead of its results:

Row | SMILES | collision cross section (N2) ([1]; [M-H]-) | collision cross section (N2) ([1]; [M+H]+) | collision cross section (N2) ([1]; [M+Na]+) | also measured
13 | CCCCC/C=C\C/C=C\C/C=C\C/C=C\CCCCCC(=O)O[C@H](COC(=O)CCCCCCCCCCCCC)COP(=O)(O)O [PA(36:4)] | 257.1 Å² |  |  | collision cross section (N2) ([2]; [M+NH4]+): 272.4 Å²; collision cross section (N2) ([2]; [M-H]-): 258.1 Å²
14 | CCCCCCCCCCCCCC(=O)OC[C@@H](O)COP(=O)([O-])OCC[N+](C)(C)C [LPC(14:0)] |  | 220.8 Å² |  | collision cross section (N2) ([2]; [M+HCOO]-): 227 Å²
15 | CCCCCCCCCCCCC=CC[C@@H](O)[C@H](CO)NC(=O)CC=CCCCCCCCCCCCCCC [Cer(d18:1/18:1)] | 248.5 Å² | 257.6 Å² |  | 
16 | CCCCCCCCCCCCCCCC/C=C\OC[C@@H](O)COP(=O)([O-])OCC[NH3+] [LPE(p18:0)] | 211.4 Å² | 222.5 Å² | 222 Å² | 
17 | CCCCCCCCCCCCCCCC(=O)O[C@H](CO)COP(=O)(O)OCCN [LPE(16:0)] | 206 Å² | 213.4 Å² | 218.8 Å² | collision cross section (N2) ([2]; [M+H]+): 213.7 Å²; collision cross section (N2) ([2]; [M+Na]+): 219.9 Å²; collision cross section (N2) ([2]; [M-H]-): 207.1 Å²
18 | CC/C=C\C/C=C\C/C=C\C/C=C\CCCCC(=O)O[C@H](COC(=O)CCCCCC/C=C\C/C=C\C/C=C\CCCCC)COP(=O)([O-])OCC[N+](C)(C)C [PC(38:7)] |  | 286.5 Å² |  | collision cross section (N2) ([2]; [M+H]+): 288.2 Å²
19 | CCCCC/C=C\C/C=C\C/C=C\CCCCC(=O)O[C@H](COC(=O)CCCCCCCCC/C=C\CCCCCCCC)COP(=O)(O)O [PA(38:4)] | 263.4 Å² |  |  | collision cross section (N2) ([2]; [M+NH4]+): 279.1 Å²; collision cross section (N2) ([2]; [M-H]-): 264.3 Å²
20 | CC/C=C\C/C=C\C/C=C\C/C=C\C/C=C\C/C=C\CCC(=O)OC[C@H](COP(=O)(O)OCCN)OC(=O)CCC/C=C\C/C=C\C/C=C\C/C=C\C/C=C\CC [PE(42:11)] |  | 280.2 Å² |  | 
21 | CCCCCCCCCCCCCCCCCCC(=O)O[C@H](COC(=O)CCCCCCCCCCCCCCCC)COP(=O)([O-])OCC[N+](C)(C)C [PC(36:0)] |  | 292.5 Å² |  | 
22 | CC/C=C\C/C=C\C/C=C\C/C=C\C/C=C\C/C=C\CCC(=O)O[C@H](COC(=O)CCCCCCCCCCCCCCCCC)COP(=O)(O)O[C@H]1C(O)C(O)C(O)[C@@H](O)C1O (stereo partly drawn) [PI(40:6)] |  |  | 299.8 Å² | collision cross section (N2) ([2]; [M+NH4]+): 306.1 Å²; collision cross section (N2) ([2]; [M-H]-): 296.4 Å²
23 | CCCCCCCCCCCCCCCC(=O)O[C@@H](CO)COC(=O)CCCCCCCCCCC [DG(14:0/14:0)] |  |  |  | collision cross section (N2) ([1]; [M+H-H2O]+): 242.3 Å²
24 | CCCCC/C=C\C/C=C\C/C=C\CCCCC(=O)OC[C@H](CO)OC(=O)CCCCCCC/C=C\CCCCCCCC [DG(18:2/18:2)] |  |  |  | collision cross section (N2) ([1]; [M+H-H2O]+): 255.9 Å²
25 | CCCCCCCCCCCCC=CC[C@@H](O)[C@H](COP(=O)([O-])OCC[N+](C)(C)C)NC(=O)CC=CCCCCCCCCCCCCCCCCCCCC [SM(d18:1/24:1)] |  | 300.7 Å² |  | 
26 | CC/C=C\C/C=C\C/C=C\C/C=C\C/C=C\CCCCCC(=O)O[C@@H](CO)COC(=O)CCCC/C=C\C/C=C\C/C=C\CCCCC [DG(20:4/20:4)] |  |  |  | collision cross section (N2) ([1]; [M+H-H2O]+): 262.6 Å²
27 | CCCCC/C=C\C/C=C\C/C=C\CCCCCCC(=O)O[C@H](COC(=O)CCCC/C=C\C/C=C\C/C=C\CCCCC)COP(=O)(O)O[C@H]1C(O)C(O)C(O)[C@@H](O)C1O (stereo partly drawn) [PI(38:6)] |  |  | 292.4 Å² | 
28 | CCCCC/C=C\C/C=C\C/C=C\CCCCCCC(=O)OC[C@H](COP(=O)(O)OC[C@H](N)C(=O)O)OC(=O)CCCCCCC/C=C\C/C=C\CCCCC [PS(38:5)] | 279 Å² |  |  | 
29 | CCCCC/C=C\C/C=C\C/C=C\C/C=C\CCCC(=O)O[C@H](CO/C=C\CCCCCCCCCCCCCCCCCC)COP(=O)(O)OCCN [PE(p40:4)] | 276.1 Å² | 286.9 Å² | 290.1 Å² | 
30 | CC/C=C\C/C=C\C/C=C\C/C=C\C/C=C\CCCC(=O)OC[C@H](COP(=O)(O)OC[C@@H](O)CO)OC(=O)CCCCCCCCC/C=C\C/C=C\CCCCC [PG(40:7)] |  |  | 288.3 Å² | 
31 | CCCCCCCCCCCCC=CC[C@@H](O)[C@H](COP(=O)([O-])OCC[N+](C)(C)C)NC(=O)CCCCCCCCCCCCCCCCCCCCCCC [SM(d18:1/24:0)] |  | 302.2 Å² |  | 
